From patent US20260182577A1, “COMBINATIONS TREATMENTS” (Aequor Inc., priority 2020, published 2026)
Values joined by “and” are separate entries in the source; they are usually repeats but may differ in a detail not shown here. Equal values may be shown once. Read-outs that look alike come from different tables or passages of the source.

Tests used:
[1] = system: Staphylococcus aureus MRSA ATCC 33591; test: MIC broth microdilution, compounds and antibiotics alone and in combination; type: cell-based; details: for MIC: Staphylococcus aureus, read-out: Minimum Inhibitory Concentration (MIC); for MIC / Minimum Inhibitory Concentration (MIC): alone, or antibiotic with SDBS/DBSA at sub-MIC concentration
Method: (§1) Antibiotic and Antibiofilm Susceptibility Tests. Minimum inhibitory concentration (MIC) broth microdilution method was performed according to CLSI guidelines (CLSI M07-A10: Methods for Dilution Antimicrobial Susceptibility Tests for Bacteria that Grow
(§2) Aerobically; Approved Standard-Tenth Edition). Minimum bactericidal concentration (MBC) was performed according to CLSI guidelines (CLSI M26-A: Methods for Determining Bactericidal Activity of Antimicrobial Agents; Approved Guideline).
(§3) The antibiotic resistance breakpoints were defined according to the recommendations of the Clinical and Laboratory Standards Institute (CLSI M07-A10: Methods for Dilution Antimicrobial Susceptibility Tests for Bacteria That Grow Aerobically; Approved Standard-Tenth Edition).
Four antibiotics (penicillin G, methicillin, gentamycin, and vancomycin) were tested in combination with SDBS and DBSA, by using a checkerboard methodology against MRSA ATCC 33591 (methicillin-R, gentamicin-R; penicillin-R) and VRSA VRS7 BEI NR-46417 (methicillin-R, gentamicin-R; penicillin-R, vancomycin-R). The combinations were assessed by fractional inhibitory concentration indices (FICIs) and the fold reduction of the MIC (“potentiation factor”) was calculated. In clinical terms, a potentiator enhances the action of a drug. SDBS and […] potentiate methicillin, gentamicin, penicillin, and vancomycin activity against MRSA and VRSA making MRSA and VRSA sensitive to those antibiotics (Table 13).

[2] = system: Staphylococcus aureus VRSA VRS7 NR-46417; test: as above; type: cell-based; details: for MIC: Staphylococcus aureus, read-out: Minimum Inhibitory Concentration (MIC)
Method: as §1, §2, §3
Four antibiotics (penicillin G, methicillin, gentamycin, and vancomycin) were tested in combination with SDBS and DBSA, by using a checkerboard methodology against MRSA ATCC 33591 (methicillin-R, gentamicin-R; penicillin-R) and VRSA VRS7 BEI NR-46417 (methicillin-R, gentamicin-R; penicillin-R, vancomycin-R). The combinations were assessed by fractional inhibitory concentration indices (FICIs) and the fold reduction of the MIC (“potentiation factor”) was calculated. In clinical terms, a potentiator enhances the action of a drug.

[3] = system: S. aureus ATCC 12600 biofilm; test: Biofilm inhibition (MBIC), Syto 9 imaging; type: cell-based, Staphylococcus aureus
Method: (§4) FIGS. 1A and 1B show biofilm inhibition by butyl phosphoramidate (BPA), sodium dodecylbenzenesulfonate (SDBS), and 4-Dodecylbenzenesulfonic acid (DBSA) against Staphylococcus aureus ATCC 12600 and E. coli ATCC 11775, which was determined by (A) measuring total intensity with Ex/Em (nm): 456/541 and (B) staining biofilm with Syto 9 green-fluorescent nucleic acid stain. Biofilm images appear white and gray and images without biofilm appear black. Images of untreated biofilm, sub-MBIC, and MBIC were taken using MiniMax 300 Imaging Cytometer (Molecular Devices).
(§5) Imaging. Biofilm inhibition imaging was determined by growing biofilm in a black-walled optically-clear bottom 96 well plate at a 45° angle to promote biofilm formation prior to imaging. Biofilm was stained with Syto 9 green fluorescent live and dead nucleic acid stain and measuring total intensity with excitation/emission (nm): 456/541. Images of biofilm were taken using MiniMax 300 Imaging Cytometer (Molecular Devices).

[4] = system: P. aeruginosa type 2 mucoid ATCC 33468; test: MIC broth microdilution; type: cell-based, Pseudomonas aeruginosa
Method: as §1, §2

[5] = system: E. coli ATCC 11775 biofilm; test: Biofilm inhibition (MBIC), Syto 9 imaging; type: cell-based
Method: as §4, §5

[6] = system: S. aureus ATCC 6358 biofilm; test: Minimum biofilm eradicating concentration (MBEC) assay, ASTM E2799-12; type: cell-based, Staphylococcus aureus
Method: Data corresponds to 4.4-Log reduction.
Minimum biofilm eradicating concentration (MBEC) was performed according to the ASTM standard (ASTM E2799-12; Standard Test Method for Testing Disinfectant Efficacy against Pseudomonas aeruginosa Biofilm using the MBEC Assay). Assays were performed in quadruplicates on more than one occasion.

B. cepacia biofilm = test: Biofilm inhibition (MBIC); type: cell-based, Burkholderia cepacia
Method: as §5

[7] = VRSA VRS7 NR-46417, alone, or antibiotic with SDBS/DBSA at sub-MIC concentration

Compound | Resistant / sensitive by CLSI breakpoints [1] | MIC [1] | MIC [2, 7] | Resistant / sensitive by CLSI breakpoints ([2]; VRSA VRS7 NR-46417) | MBIC (inhibition of biofilm formation) [3] | other results
COc1cccc(OC)c1C(=O)N[C@@H]1C(=O)N2[C@@H]1SC(C)(C)[C@@H]2C(=O)O [Methicillin, methicillin] | (R) | > 22.7 µg/mL | > 22.7 µg/mL | (R) | – | –
CCCCCCCCCCCCOS(=O)(=O)[O-].[Na+] [SDS, sodium dodecyl sulfate] | – | – | – | – | 140 µg/mL | –
CC1(C)S[C@@H]2[C@H](NC(=O)Cc3ccccc3)C(=O)N2[C@H]1C(=O)O [Penicillin, penicillin G] | (R) | > 22.7 µg/mL | 11.3 µg/mL | (R) | – | –
CN[C@H](CC(C)C)C(=O)N[C@H]1C(=O)N[C@@H](CC(N)=O)C(=O)N[C@H]2C(=O)N[C@H]3C(=O)N[C@H](C(=O)N[C@H](C(=O)O)c4cc(O)cc(O)c4-c4cc3ccc4O)[C@H](O)c3ccc(c(Cl)c3)Oc3cc2cc(c3O[C@@H]2O[C@H](CO)[C@@H](O)[C@H](O)[C@H]2O[C@H]2C[C@](C)(N)[C@H](O)[C@H](C)O2)Oc2ccc(cc2Cl)[C@H]1O [Vancomycin, vancomycin] | – | – | – | (R) | – | MIC ([2]; VRSA): 22.7 µg/mL
gentamicin | (R) | – | – | (R) | – | Minimum Inhibitory Concentration (MIC) [1]: >45.4 µg/mL; Minimum Inhibitory Concentration (MIC) [2, 7]: 22.7 µg/mL
CCCCCCCCCCCCc1ccc(S(=O)(=O)O)cc1 [DBSA, 4-Dodecylbenzenesulfonic acid] | – | 19 µg/mL | > 20 µg/mL | – | 100 µg/mL | –
butyl phosphoramidate [BPA] | – | – | – | – | 50 µg/mL | Minimum Inhibitory Concentration (MIC) [1]: 25 µg/mL and 12.5 µg/mL; Minimum Inhibitory Concentration (MIC) [4]: 25 µg/mL and 12.5 µg/mL; MBIC (inhibition of biofilm formation) [5]: 50 µg/mL; Minimum Inhibitory Concentration (MIC) [2, 7]: 25 µg/mL and 12.5 µg/mL; Log reduction of viable cells ([6]; after 10 minutes of exposure): 4.4 Log; removal of biofilm ([6]; after 10 minutes of exposure, colony counting CFU/ml): 99.99%; MBEC (removal of existing biofilm) ([6]; demonstrated by Lonza): < 25 µg/mL; MBIC (inhibition of biofilm formation) (B. cepacia biofilm): 50 µg/mL
